Measurements: patent publication US20240390487A1, “TLR AGONISTS FOR REDUCING ACTIVATION-INDUCED PD-1 EXPRESSION ON T CELLS AND METHODS OF USE” (WISCONSIN ALUMNI RESEARCH FOUNDATION, priority 2016, published 2024)

How the values were obtained:
[1] = tested on: OT-1 transgenic splenocytes; test: In vitro stimulation of OT-1 splenocytes with peptide antigen in the presence of TLR agonists, surface markers by flow cytometry; type: cell-based, mice; parameters: key to 4-1BB / PD-1 / LAG3 / CD160 / CD244.2 / BTLA / VISTA: “+” means increase; “−” means decrease; “=” means no change; “=/+” or “=/−” means the change is there but not significant; “=/+” or “=/−” means the change is there but not significant; details: for 4-1BB / LAG3 / PD-1: OT-1 splenocytes, high affinity antigen plus TLR agonist, versus antigen alone
Experimental: T cell activation was measured by the levels of marker 4-1BB (a/k/a CD137, a member of the TNF receptor superfamily). The level of PD-1 expression was also assessed in these cells (FIG. 1B).
There was no difference in LAG3 expression between the control cells and cells treated with any of the assayed TLR agonists.
OT-1 transgenic splenocytes were treated with high affinity antigen in combination with Pam3CSK4 (TLR1 and 2 agonist), Gardiquimod (TLR7 agonist) or no TLR agonist and the levels of different checkpoint markers or T cell stimulation (measured by 4-1BB, FIG. 5) were assayed. The checkpoint markers BTLA (FIG. 6), VISTA (FIG. 7), CD160 (FIG. 8) and CD244.2 (FIG. 9) were assayed.
TLR stimulation at the time of T-cell activation in vitro affects expression of PD-1. Given that CpG-rich DNA is a TLR9 agonist and Lm is a TLR2 agonist, we questioned whether TLR stimulation with different ligands could similarly affect expression of different T-cell checkpoint inhibitors. […] OT-1 splenocytes were stimulated in vitro with peptides of different affinity for MHC class I (high-affinity SIINFEKL peptide (SEQ ID NO:1, OVA), moderate-affinity SIINTEKL peptide (SEQ ID NO:2, FT), or low-affinity SIINFEKP peptide (SEQ ID NO:7, LP)), alone or in the presence of different TLR ligands (TLR 1/2 (Pam3CSK4), TLR 3 (Poly I:C), TLR 4 (MPLAs), TLR 7 (Gardiquimod), TLR 7/8 (R848), or TLR 9 (ODN1826)). […] Similarly, LAG-3 expression increased by day 3, but was not affected by the presence of different TLR ligands. […] This reduction in PD-1 expression was observed most with the high-affinity SIINFEKL (SEQ ID NO:1) epitope, but also observed following activation with lower affinity epitopes. Given these findings, we evaluated expression of multiple other T-cell checkpoint molecules following T-cell activation in the presence of TLR ligands. […] Cytotoxic T-lymphocyte-associated protein 4 (CTLA-4) expression, however, was increased in the presence of TLR1/2 agonist. Similar results were found activating OT-1 cells with the lower affinity FT (SIINTEKL peptide (SEQ ID NO:2)), LP (SIINFEKP peptide (SEQ ID NO:7), or LY (SIINFEKY, SEQ ID NO:8) epitopes (FIG. 19).
In vitro T-cell stimulation: Spleens were collected from OT-1 mice, processed through a mesh screen, and splenocytes were isolated by centrifugation after red blood cell osmotic lysis with ammonium chloride/[…] lysis buffer (0.15 M NH4Cl, 10 mM KHCO3, 0.1 mM EDTA). Splenocytes were cultured at 2×10^6/mL in RPMI 1640 medium supplemented with L-glutamine, 10% fetal calf serum (FCS), 200 U/mL penicillin/streptomycin, 1% sodium pyruvate, 1% HEPES, 50 μM β-MeOH, and 2 μg/mL of the designated peptide. TLR agonists were all purchased from InvivoGen (San Diego, CA) and added one hour before peptides at the following optimal concentrations based on preliminary studies and previously reported results: 300 ng/ml Pam3CSK4, 10 μg/mL Poly(I:C) HMW, 10 μg/ml MPLAs, 3 μg/ml Gardiquimod, 10 μg/ml R848, 5 μM ODN 1826. At the time points indicated, cells were stained, fixed for 15 min at 4° C. in cytofix (BD Biosciences (BD), San Jose, CA; 554655), and frozen in FCS+10% DMSO. After all time points were collected, cells from all times were thawed, rinsed and resuspended in PBS+3% FCS+1 mM EDTA and analyzed by flow cytometry. Cells were stained for 30 min at 4° C. in a 1:4 dilution of brilliant stain buffer (BD 563794) in PBS+3% FCS+1 mM EDTA. In order to assess co-stimulation, blocking antibodies for CD80 (0.6 μg/mL), CD86 (0.25 μg/mL) or OX40L (0.6 μg/mL) were added 1 hour prior to antigen.

OT-1 CD8+ T cells = test: Adoptive transfer of OT-1 T cells and immunization of C57BL/6 mice, marker expression on splenic OT-1 T cells; type: in vivo
Source text: Vaccine type can affect expression of T-cell checkpoint molecules on activated CD8+ T cells: This Example used an ovalbumin vaccination model. OT-1 cells were adoptively transferred to naïve C57BL/6 mice. The day after transfer, mice were immunized once with (a) DNA encoding ovalbumin, (b) Listeria monocytogenes (Lm) encoding ovalbumin, (c) OVA257-264 peptide (SIINFEKL (SEQ ID NO:1)), (d) SIINFEKL peptide (SEQ ID NO:1) with DNA vector, (e) DNA vector alone, (f) Lm encoding control vector with no antigen, or (g) NS (non-specific) peptide. Splenocytes were collected the day after vaccination for expression of cell surface markers on antigen-specific OT-1 cells. […] LAG-3 expression was not reduced in the presence of Lm co-administered with peptide.
TLR stimulation at the time of T-cell activation reduced expression of PD-1 in vivo: To determine whether TLR stimulation at the time of T-cell activation with vaccination elicited a similar reduction in PD-1 in vivo, OT-1 cells were adoptively transferred to naïve C57BL/6 mice as above, and immunized once with OVA or FT peptide (or non-specific peptide) one day later in the presence or absence of a TLR 1/2, TLR7, or TLR9 ligand. Splenocytes were collected from groups up to 14 days after immunization and evaluated for expression of 4-1BB, PD-1 and LAG-3.
Adoptive transfer and immunization of wild type C57BL/6 (B6) mice: OT-1 splenocytes were harvested and CD8+ T cells were isolated as described above. 2×10^6 OT-1 T cells were adoptively transferred into 6- to 10-week old female B6 mice via intraperitoneal injection. The day following transfer, mice were immunized subcutaneously with 100 μg SIINFEKL peptide (SEQ ID NO:1) in PBS without adjuvant, intradermally with 100 μg plasmid encoding full length secreted chicken egg ovalbumin (pCI-neo-sOVA (psOVA), Addgene plasmid #25098, Cambridge, MA), intraperitoneally with 5×10^6 cfu of a Listeria monocytogenes vector encoding ovalbumin (Lm-OVA, gift of JD Sauer), or vehicle or corresponding wild-type Lm or DNA plasmid vector. TLR agonists were co-injected with the vaccine at the following concentrations: 20 μg/mouse Pam3CSK4, 100 μg/mouse Gardiquimod, 50 μg/mouse ODN 1826, or vehicle. Mice were euthanized at the times indicated. Spleens were collected, processed as described above, and T-cell populations analyzed by flow cytometry. Data collected on different days were normalized using rainbow beads (Spherotech, Lake Forest, IL; RFP-30-5A).

[2] = tested on: ovalbumin-expressing E.G7 cells; test: Ovalbumin tumor treatment study: peptide immunization with or without TLR agonist; type: in vivo, mice; details: FT peptide relative to high-affinity OVA peptide
Experimental: OT-1 T cells were then adoptively transferred and the following day were immunized with SIINFEKL (SEQ ID NO:1, OVA) or FT peptide (SEQ ID NO:2) alone or with TLR1/2 or TLR7 agonist. Other groups were immunized with 100 μg anti-PD-1 antibody delivered the following day. […] This anti-tumor effect was not observed with TLR agonist treatment alone (FIG. 22). […] This was associated with a reduced PD-1 (but not LAG-3) expression on CD8+ TIL (FIG. 17C).
Ovalbumin tumor treatment studies: 10^6 ovalbumin-expressing E.G7 PD-L 1^high cells were injected subcutaneously into 6- to 10-week old female B6 mice. Ten to fifteen days post injection, when tumors were palpable and similarly sized (˜0.2 cm^3), 2×10^6 naïve OT-1 CD8+ T cells were adoptively transferred to each mouse as described above. The following day mice were immunized subcutaneously with 100 μg of an individual peptide (SIINFEKL (SEQ ID NO:1) or variant, LifeTein) in PBS, with or without TLR agonists as described above. In the group receiving PD-1 blocking antibody, 100 μg of antibody (clone G4 (52)) was injected intraperitoneally on the day following vaccination. Tumor volume was measured over time using calipers and calculated in cubic centimeters according to the following formula: (π/6)*(long axis)*(short axis)^2. Tumors obtained at necropsy were digested in media containing 1 mg/mL collagenase and 20 μg/mL DNAse I (Sigma, St. Louis, MO) for 1-2 hours at 37° C. and passed through a 100-μm screen to obtain a single-cell suspension. Tumor cells and tumor-infiltrating lymphocytes (TILs) were stained and analyzed by flow cytometry using the following panel: CD3-FITC (BD 555274), CD4-BUV395 (BD 563790), CD8-BUV805 (BD 564920), LAG-3-BV711 (BD 563179), PD1-PECF594 (BD 562523), PDL1-PECy7 (BD 558017), 41BB-PerCPeF710) (eBioscience 46-1371-82), CD45-BV510 (BD 563891) and Live/Dead Ghost dye 780 (Tonbo, San Diego, CA 13-0865-T100) or corresponding fluorescently labeled IgG controls.

CCOCc1nc2c(N)nc3ccccc3c2n1CC(C)(C)O [R848, Resiquimod]
4-1BB [1]: =
LAG3 [1]: =
PD-1 [1]: −

ODN1826
4-1BB [1]: =
LAG3 [1]: =/−
PD-1 [1]: −
PD-1 expression on activated T cells ([1]; in words, SIINFEKL plus TLR agonist versus antigen alone, up to 4 days): significantly reduced
PD-1 expression on OT-1 CD8+ T cells in vivo (OT-1 CD8+ T cells; OVA or FT peptide immunization with TLR ligand versus peptide alone, splenocytes up to 14 days, early after T-cell activation): significantly reduced

SIINFEKL [SIINFEKL peptide]
T-cell activation as measured by 4-1BB expression, by peptide affinity ([1]; OVA versus FT and LP peptides): greatest T-cell activation
LAG-3 expression by vaccine type (OT-1 CD8+ T cells; one immunization, splenocytes after vaccination, Lm co-administered with peptide): significantly increased
4-1BB expression by vaccine type (OT-1 CD8+ T cells; one immunization, splenocytes after vaccination, Lm or DNA co-administered at the site of peptide immunization): strongest activation
PD-1 expression by vaccine type (OT-1 CD8+ T cells; one immunization, splenocytes after vaccination, Lm or DNA co-administered with peptide versus peptide): significantly increased

SIINTEKL [FT peptide]
anti-tumor response of peptide immunization alone [2]: greater anti-tumor response
